The text below walks through data of patent US11998544B2, “Methods of using splicing modulators” (EISAI R&D MANAGEMENT CO., LTD., priority 2018, dated 2024).

Data set [1] relates to CT26 syngeneic tumors. Nature of the data set: Efficacy study, mouse colon cancer syngeneic model (CT26). The class given is in vivo. The following applies: Balb/c mice with CT26 tumors; Compound 1 at any dose level or schedule; FIG. 1A. On the procedure: Efficacy Study Protocol: Mouse Colon Cancer Syngeneic Model
CT26 colon cancer cells (0.25×10^6; ATCC Cat # CRL-2638) were implanted subcutaneously into the right flank of eight-week old female Balb/c mice (Envigo) in 100 μL of PBS lacking matrigel. CT26 tumors were allowed to grow to an average of ˜100 mm^3 before animals were enrolled onto the efficacy study. Each treatment group contained 12 mice. Mice were treated with Compound 1, an anti-CTLA4 antibody (Bio X Cell Catalog Number: BE0164 (αCTLA4 9D9)), or a combination at doses and routes of administration as shown in FIG. 1. Compound 1 was formulated in a composition containing 5% ethanol and 95% methylcellulose solution (0.5% methylcellulose. The anti-CTLA4 antibody was formulated in phosphate buffer solution at pH 7.0. Tumors were measured 3 times per week for up to 19 days. Tumor volumes were calculated using the ellipsoid formula: Tumor Volume=(length×width^2)/2

Data set [2] relates to SF3b1 mutant cell lines. The following applies: previously shown, U.S. Pat. No. 9,481,669 B2 and PCT/US2016/062525, cited from earlier work.
The conditions of data set [3]: in vivo; cited from earlier work.

With `C/C(=C\C=C\[C@@H](C)c1ccccn1)[C@H]1OC(=O)C[C@H](O)CC[C@@](C)(O)[C@@H](OC(=O)N2CCN(C)CC2)/C=C/[C@@H]1C` [Compound 1, (2S,3S,6S,7R,10R,E)-7,10-dihydroxy-3,7-dimethyl-12-oxo-2-((R,2E,4E)-6-(pyridin-2-yl)hepta-2,4-dien-2-yl)oxacyclododec-4-en-6-yl 4-methylpiperazine-1-carboxylate], in data set [1], the “antitumor activity (growth curves compared to vehicle treated controls)” value is given as “did not result in noticeable antitumor activity”. Further, the cellular lethality entry in data set [2] (SF3b1 mutant cell lines) is “cellular lethality in SF3b1 mutant cell lines”. In addition, the splicing modulator activity result in data set [2] is “demonstrate splicing modulator activity”.

Turning to “Ipilimumab: fully human anti-CTLA4 antibody, an IgG1”, the plasma half-life in data set [3] is 12 to 14 days.

In the case of “tremelimumab: fully human anti-CTLA4 antibody, an IgG2”, the plasma half-life result in data set [3] is “approximately 22 days”.
